{
  "source": "patent US20080292619A1",
  "about": "“Pharmaceutical Composition Containing Meltrin Antagonist” (MOCHIDA PHARMACEUTICAL CO., LTD., priority 2004, published 2008)",
  "key": {"human meltrin α RNA": {"test_system": "human meltrin α RNA", "assay": "Suppression of human meltrin α expression by antisense compound in RD cell (real time PCR)", "format": "cell-based", "details": "50 nM; RD cell", "in_short": "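RD cells transfected with heat-denatured antisense oligodeoxynucleotide plus Lipofectin in Opti-MEM for 4 h at 37° C, then cultured 18 h. Meltrin α RNA quantified by TaqMan RT-PCR against plasmid standard curve, GAPDH-corrected; suppression vs untreated cells, rated +/++/+++ for ≥30/50/70%.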"}, "human preadipocyte": {"test_system": "human preadipocyte", "assay": "Adipocyte proliferation and differentiation, neutral fat accumulation (Adipo Red)", "format": "cell-based", "details": "antibody final concentration 5 μL/mL; 15 days; AdipoRed", "description": "The differentiation medium was prepared by adding supplement kit PGM SingleQuots, #PT-9500, Lot.08101163 (Sanko Junyaku Co., Ltd.) to 100 mL of growth medium. 50 μL of the supernatant was removed from the 96 well plate prepared in Example 12, and 50 μL of the siRNA or the antisense oligonucleotide prepared in the differentiation medium was added, and incubation was conducted in a CO2 incubator for 5 days to 15 days.\nThe amount of neutral fat accumulated in the adipocyte was determined by fluorometry using Adipo Red stain.\nAfter taking the 96 well plate out of the CO2 incubator, the plate was allowed to stand until it cooled to room temperature. The plate was centrifuged at 300 g (1200 rpm) for 10 minutes at room temperature to remove the medium. Next, the plate was gently washed with 200 μL/well of PBS (Sigma), and 200 μL/well of PBS was added to the well.\nNext, 5 μL/well of Adipo Red Assay Reagent (Adipo Red, Cat. #PT-7009, Lot.3F0497, A Cambrex Company) was added, and the plate was allowed to stand at room temperature for at least 10 minutes to thereby stain the neutral fat that had accumulated in the adipocyte. The fluorescence intensity was measured in a fluorometer at an excitation wavelength of 485 nm and an emission wavelength of 535 nm to thereby determine the fat accumulation.\nAccording to the method of Example 15, M82463 was added to the human preadipocyte incubation system at a concentration of 0.3 to 10 μg/mL so that the final concentration of the DMSO was 0.2%. As a control, a group having only the DMSO added to a final concentration of 0.2% was used.\nAfter preparation of the antibody to the concentration of 0.100 mg/mL with physiological saline, 9 volumes of adipocyte differentiation medium was added to 1 volume of the antibody solution, and the solution was sterilized by filtering through a filter having a diameter of 0.22 μm (MILLEX-GV 0.22 μm Filter unit, 3slgv013SL, Lot. R2NN83622, MILLIPORE). […]"}},
  "note": "In the oligonucleotide strings, read from the 5' end, every base follows the letter of its sugar. An asterisk marks phosphorothioate; unmarked linkages are phosphodiester. Other units and linkages are bracketed, terminal groups are in braces. A string of capitals states the bases alone. d = 2'-deoxy (DNA)",
  "data": [
    {"substance": "2 (dC*dT*dG*dG*dT*dT*dA*dA*dT*dG*dG*dT*dT*dC*dA*dC*dA*dT*dC*dT) [compound 2]", "values": [
      {"measurement": "Supression of expression, 50 nM", "setting": "human meltrin α RNA", "value": "++ (“++” when the suppression rate was at least 50%)"},
      {"measurement": "Suppressive effect", "setting": "human preadipocyte", "value": "++ (suppression by 50% or higher)"}
    ]}
  ]
}
